Biological target: Estrogen receptor beta (Homo sapiens, UniProt Q92731)
Sequence (Q92731 whole entry): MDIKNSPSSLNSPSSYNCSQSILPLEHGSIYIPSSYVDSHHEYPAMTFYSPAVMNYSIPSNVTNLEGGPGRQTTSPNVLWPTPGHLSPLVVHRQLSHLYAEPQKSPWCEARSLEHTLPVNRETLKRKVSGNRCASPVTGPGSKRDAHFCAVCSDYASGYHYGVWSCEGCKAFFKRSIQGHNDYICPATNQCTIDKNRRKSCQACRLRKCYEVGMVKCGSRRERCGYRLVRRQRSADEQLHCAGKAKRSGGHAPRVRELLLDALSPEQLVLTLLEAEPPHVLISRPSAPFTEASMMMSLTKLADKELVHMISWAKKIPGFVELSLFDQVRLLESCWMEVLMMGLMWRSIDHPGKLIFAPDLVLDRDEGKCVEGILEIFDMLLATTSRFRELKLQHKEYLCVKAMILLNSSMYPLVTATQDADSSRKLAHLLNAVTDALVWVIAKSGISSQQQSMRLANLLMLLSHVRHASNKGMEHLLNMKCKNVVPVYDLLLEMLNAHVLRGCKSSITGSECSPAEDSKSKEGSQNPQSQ
Description: Antagonist activity at human ER-beta transfected in human HepG2 cells incubated for 24 hrs by 3xERE-driven luciferase reporter assay

Structure (SMILES): C=CCc1ccc(OC(=O)CCC)c(-c2ccc(O)c(CC=C)c2)c1
- IC50: 1320 µM

From ChEMBL document CHEMBL6127129 (J Nat Prod, 2024)
